The results in this text go back to patent US20130108610A1 (priority 2011, published 2013).

One assay deals with T1, aconitase (Saccharomyces cerevisiae, UniProt P19414).
T1 construct: endogenous in cells; host or cells: Saccharomyces cerevisiae strain BY4741
The experiment in a line: Aconitase activity in lysates of treated Saccharomyces cerevisiae BY4741 cultures (Bioxytech Aconitase-340 kit). Conditions: for Aconitase Activity, % of Untreated Control: S. cerevisiae BY4741 in YPD, incubated overnight, cell lysate, negative activity reported as 0; for Aconitase inhibition (in words): culturing of cells in the presence of the material, effective = inhibition by 70% or more. Type of assay: cell-based. The method, then: Cultures of Saccharomyces cerevisiae strain BY4741 are grown in YPD (20 grams glucose, 20 grams peptone, 10 grams yeast extract per liter) broth overnight at 30°. The cultures are diluted with YPD to a total volume of 100 mls with an optical density (600 nm) of 0.1. The cultures are incubated with shaking until reaching an optical density of 0.2, whereupon the test material is added. The cultures are incubated overnight, and the cells are pelleted by centrifugation. The cell pellet is washed with 100 mM NaCl, 20 mM Tris pH 7.4 and resuspended in 5 ml of 100 mM NaCl, 20 mM Tris pH 7.4. Glass beads (0.5 mm) is added. The sample is alternately vortexed for one minute and incubated on ice for one minute, with a total of ten treatments. After centrifugation, the supernatant is collected. In a 96-well plate (UV-transparent Corning 3679 plate), 30 μl of cell lysate is mixed with 20 μl 100 mM NaCl, 20 mM Tris pH 7.4 and assayed using a Bioxytech Aconitase-340 kit (OxisResearch) according to instructions.
For the aconitase assay, samples are incubated for six minutes at 37°. The reaction rate is calculated based on the increase in optical density (340 nm) in the five-minute interval beginning one minute after the reaction started. The aconitase activity in lysates of treated samples is divided by the aconitase activity in lysates of untreated samples. If replicates were performed on samples, the reported data are a mean of the aconitase activity measurements of individual lysates of treated cells divided by the mean of the aconitase activity measurements of individual lysates of untreated cells. If the aconitase activity appears to be negative in lysates of treated cells, the value “0” is reported for aconitase activity (Table 1).

The next assay relates to Saccharomyces. Conditions: minimal medium; by inhibition of glutamate and lysine synthesis.

T1 sequence (P19414 17-778): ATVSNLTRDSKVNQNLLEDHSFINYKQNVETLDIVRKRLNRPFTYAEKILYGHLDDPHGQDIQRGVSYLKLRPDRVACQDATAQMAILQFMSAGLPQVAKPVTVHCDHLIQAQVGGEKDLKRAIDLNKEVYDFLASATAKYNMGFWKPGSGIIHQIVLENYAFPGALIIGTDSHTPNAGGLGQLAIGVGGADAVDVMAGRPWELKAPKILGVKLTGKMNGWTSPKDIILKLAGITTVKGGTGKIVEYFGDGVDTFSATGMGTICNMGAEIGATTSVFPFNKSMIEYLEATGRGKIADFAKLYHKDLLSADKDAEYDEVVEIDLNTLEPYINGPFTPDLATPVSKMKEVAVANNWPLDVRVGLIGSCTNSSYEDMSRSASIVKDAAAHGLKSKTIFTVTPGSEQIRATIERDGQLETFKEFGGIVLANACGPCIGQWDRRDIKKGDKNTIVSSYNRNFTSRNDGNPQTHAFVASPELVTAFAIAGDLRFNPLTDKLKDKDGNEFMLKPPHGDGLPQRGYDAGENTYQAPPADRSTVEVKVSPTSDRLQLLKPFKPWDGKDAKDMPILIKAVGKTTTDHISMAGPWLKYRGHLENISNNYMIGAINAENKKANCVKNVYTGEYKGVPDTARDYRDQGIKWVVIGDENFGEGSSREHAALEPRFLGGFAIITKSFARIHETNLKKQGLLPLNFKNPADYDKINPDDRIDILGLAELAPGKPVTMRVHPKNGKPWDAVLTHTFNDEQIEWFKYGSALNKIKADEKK

Consider `Cc1cc(CC(C)CC(C)(C)C)n(O)c(=O)c1.NCCO` (centres unmarked) [Piroctone Diamine (Octopirox), Piroctone Diamine], for which the “Aconitase Activity, % of Untreated Control” value (shortened to “Aconitase Activity, %”) on aconitase (50 ppm test material) is listed as 0%.
Same read-out and setting: to `c1cnc2c(c1)ccc1cccnc12` [1,10-Phenanthroline] belongs 2%.
`O=C(O)CN(CCN(CC(=O)O)CC(=O)O)CC(=O)O` [EDTA]: at aconitase (50 ppm test material), the “Aconitase Activity, %” value is on record as 36%. At aconitase, the “Aconitase inhibition (in words)” value is reported as “not effective”.
Take `O=S(=O)([O-])[O-].[Zn+2]` [Zinc Sulfate]: on aconitase (50 ppm test material), the “Aconitase Activity, %” value is listed as 110%.
Regarding `[O-]n1ccccc1=S.[O-]n1ccccc1=S.[Zn+2]` [Zinc pyrithione (ZPT), zinc salt of 1-hydroxy-2-pyridinethione], the “Aconitase Activity, %” value on aconitase (5 ppm test material) was 0%. Moreover, on aconitase, the “Aconitase inhibition (in words)” value is reported as “aconitase inhibition”. The “Growth inhibition (in words)” value with Saccharomyces was “inhibits growth”.
`On1ccccc1=S.On1ccccc1=S.[Cu]` [Copper Pyrithione (CuPT), Copper Pyrithione]: the “Aconitase Activity, %” value on aconitase (5 ppm test material) is 0%.
With `CCCCCCCCOc1cccc(=O)n1O.NCCO` [N-Hydroxy-6-octyloxypyridine-2(1H)one, ethanolamine salt], the “Aconitase Activity, %” value at aconitase (50 ppm test material) was found to be 0%.
As to `Oc1cccc2cccnc12` [8-Hydroxyquinoline], the “Aconitase Activity, %” value on aconitase (50 ppm test material) turned out to be 15%.
